Measured values published in patent US5707984A, “Steroid nitrite/nitrate ester derivatives useful as anti-inflammatory drugs” (G. D. Searle & Co., priority 1995, dated 1998).

Experiments:
[1] = test system: rat aortic ring smooth muscle; experiment: In vitro smooth relaxant activity assay, rat aortic rings precontracted with phenylephrine; assay type: cell-based; settings: for EC50: Rattus norvegicus, in the presence of Cys and L-NAME, precontracted with phenylephrine (0.3 μM), read-out: Relaxation, EC50; for smooth muscle relaxant activity (in words): rat aortic rings, Cys and L-NAME, FIGS. 1 and 2
Description: (§1) Selected compounds were tested in three in vitro and two in vivo assays. The in vitro assays consisted of the following: measuring the effect of the compounds to inhibit the increase of prostaglandins following treatment of human fetal fibroblasts cells with interleukin-1 followed by arachidonic acid, measuring the effect of the compounds on cyclic GMP in the human fetal fibroblasts, and measuring the smooth muscle relaxant activity in rat aortic rings. The in vivo assay consists of measuring the antiinflammatory properties of the compounds in the carageenan treated rat air pouch model and the relaxant activity on acetylcholine-induced bronchoconstriction in guinea-pigs.
C. In vitro smooth relaxant activity assay: Selected compounds were examined for the ability to relax smooth muscle. The rat aortic ring assay was utilized as a bioassay to measure the relaxant activity. The rings were precontracted with phenylephrine (0.3 μM) and subsequently compounds were added to the tissue bath in the presence of cysteine (Cys) and N^G -L-nitro-arginine methyl ester (L-NAME): […]

[2] = test system: cyclic GMP in human fetal fibroblasts; experiment: In vitro stimulation of cGMP production assay, human fetal fibroblasts with isobutylmethylxanthine, radioimmunoassay (NO reporter cell assay); assay type: cell-based; settings: 120 min, isobutylmethylxanthine present; basal 1.8
Description: as §1
B. In vitro stimulation of cGMP production assay: Human fetal fibroblasts in the presence of isobutylmethylxanthine, an inhibitor of phosphodiesterase, were treated with compounds for 120 min and the intra-cellular cyclic GMP levels are measured by a radioimmunoassay. The cell line is utilized as a reporter cell assay to monitor the production of NO.

[3] = test system: prostaglandin E2 (PGE2) synthesis in human fetal fibroblasts cells; experiment: In vitro inhibition of prostaglandin E2 (PGE2) synthesis assay, human fetal fibroblasts treated with IL-1 then arachidonic acid, ELISA; assay type: cell-based; settings: IL-1 16 h then arachidonic acid; compound 10 uM added with IL-1; basal 3.5, IL-1, AA alone 40.0
Description: as §1
A. In vitro inhibiton of prostaglandin E2 (PGE2) synthesis assay: Human fetal fibroblasts cells were treated with IL-1 for 16 hours and then with 10 mM arachidonic acid (AA). The prostaglandin E2 levels were measured by an ELISA. Compounds were given at the time of addition of IL-1. This assay provides an in vitro assessment of the compound to block the induction of the proinflammatory agent prostaglandin E2 (PGE2): […]

[4] = test system: prostaglandin E2 in pouch fluid (carageenan-induced inflammation); experiment: In vivo anti inflammatory assay, rat carageenan air pouch
Description: as §1
D. In vivo anti inflammatory assay: EXAMPLE 1 was tested for antiinflammatory activity in vivo in the rat carageenan air pouch assay. Rats are injected subcutaneously with a volume of air over several days to form a pouch. […] The inflammation is measured by assaying the pouch fluid for prostaglandin E2 by ELISA. Examples 1 at 3 mg/kg dose blocked the increase in prostaglandin E2 by 60%.

In the case of `C[C@]12C=CC(=O)C=C1CC[C@@H]1[C@@H]2[C@@H](ON=O)C[C@@]2(C)[C@H]1CC[C@]2(O)C(=O)CO` [Example 2], the EC50 [1] is reported as 0.03 µM.
`CCC(=O)OCC(=O)[C@@]1(OC(=O)CC)[C@@H](C)C[C@H]2[C@@H]3CCC4=CC(=O)C=C[C@]4(C)[C@@]3(Cl)[C@@H](O)C[C@@]21C` [beclomethasone dipropionate] was tested, and the EC50 [1] was over 100 µM and the “smooth muscle relaxant activity (in words)” value [1] was “did not show any effect”.
`C[C@]12C=CC(=O)C=C1CC[C@@H]1[C@@H]2[C@@H](O)C[C@@]2(C)[C@H]1CC[C@]2(O)C(=O)CO` [prednisolone] was tested, and the “cyclic GMP” value [2] was 1.6 fm/cell well, the PGE2 [3] was 9.9 ng and the “smooth muscle relaxant activity (in words)” value [1] was “did not show any effect”.
Molecule `CCC(=O)OCC(=O)[C@@]1(OC(=O)CC)[C@@H](C)C[C@H]2[C@@H]3CCC4=CC(=O)C=C[C@]4(C)[C@@]3(Cl)[C@@H](ON=O)C[C@@]21C` [Example 11] has an EC50 [1] of 0.04 µM.
`CCC(=O)OCC(=O)[C@@]1(OC(=O)CC)[C@@H](C)C[C@H]2[C@@H]3CCC4=CC(=O)C=C[C@]4(C)[C@@]3(Cl)[C@@H](O[N+](=O)[O-])C[C@@]21C` [beclomethasone dipropionate-11-nitrate ester] was tested, and the EC50 [1] was 2 µM.
In the case of `CC(=O)OCC(=O)[C@@]1(O)CC[C@H]2[C@@H]3CCC4=CC(=O)C=C[C@]4(C)[C@H]3[C@@H](O[N+](=O)[O-])C[C@@]21C` [prednisolone-11-nitrate ester-21-acetate], the EC50 [1] is reported as 25 µM.
In the case of `CC(=O)OCC(=O)[C@@]1(O)CC[C@H]2[C@@H]3CCC4=CC(=O)C=C[C@]4(C)[C@H]3[C@@H](ON=O)C[C@@]21C` [Example 1], the “cyclic GMP” value [2] is reported as 4.8 fm/cell well, the “ability to reduce inflammation in vivo (in words)” value [4] is reported as “possess the ability to reduce inflammation in vivo” and the “blocked the increase in prostaglandin E2” value ([4]; 3 mg/kg) is reported as 60%. For the same molecule, the PGE2 [3] was 9.2 ng and the EC50 [1] was 0.02 µM.
